No end group written: not given here. *: point of attachment. FITC = O=C1OC2(c3ccc(O)cc3Oc3cc(O)ccc32)c2ccc(NC(=S)*)cc21
Columns and labels:
[1] = tested on: PKA-dependent process of Dictyostelium aggregation; assay: Aggregation of starved Dictyostelium cultures (PKA-dependent); assay type: cell-based, Dictyostelium discoideum; settings: 10 micromolar
Description: FIG. 6. Cupid can transport small molecule cargo into cells. Starved Dictyostelium cultures were treated with no peptide (A), cupid B peptide (B), PKI peptide (C) and Cupid B-PKI peptide (D) and analysed for aggregation.
Upon starvation Dictyostelium initiates a developmental program leading to the aggregation of free-living amoebae. Genetic research has uncovered the crucial role that cyclic adenosine monophosphate (cAMP) plays in orchestrating as an extracellular chemoattractant in the initial aggregation process through Dictyostelium cAMP-dependent Protein Kinase (DdPKA). DdPKA can be inhibited by PKI, a 20 amino acid peptide sequence derived from an inhibitor of PKA, by PKI binding directly to the catalytic unit of PKA.
By creating a Cupid B-PKI fusion protein we aimed to establish that it prevents starving Dictyostelium cells from aggregating in vivo.

[2] = tested on: Dictyostelium discoideum amoeba cells; assay type: cell-based; settings: for entry of fluorescently labeled peptide into cells: 10 μM, 1 hour, Dictyostelium cell; for time for half-maximal permeation: FITC-labelled peptide at 20 micromolar, Dictyostelium cells
Description: (§1) Peptides were labelled with Fluorescein isothiocyanate (FITC) using a FITC labeling kit as per instructions (Pierce, UK). When added to cell cultures the labeled peptides were visualized using a fluorescent microscope by exciting the FITC with a 488 nm spectral line, argon-ion laser (Excitation wavelength of 494 nm and an Emission wavelength of 518 nm).
AX2 wild type Dictyostelium cells were grown on SM agar plates seeded with Aerobacter aerogenes bacteria (also known as Klebsiella aerogenes) as a food source.
Cupid A ([…]; SEQ ID NO: 2) and Cupid B ([…]; SEQ ID NO: 1) were chemically synthesized labelled with FITC at the amino terminal. The peptides were added to cultured eukaryotic cells of Dictyostelium discoideum amoeba for varying amounts of time up to 2 hours. Cells were then washed and prepared for examination under a fluorescent microscope (FIG. 1). The time courses of permeation were compared to the class 3 CPP, the Antennapedia peptide, pANT which was also labelled with FITC in chemical synthesis (FIG. 2).

[3] = tested on: human embryonic kidney cells; assay: Permeation of FITC-labelled peptide into human embryonic kidney cells; assay type: cell-based; settings: 10 μM, 1 hour, human kidney cell
Source text: as §1

human fibroblasts = assay: Permeation of FITC-labelled peptide into human fibroblasts; assay type: cell-based; settings: 10 μM, 1 hour, Human Fibroblast cell
Source text: as §1

## Cupid B peptide: RRVQIWFQNKRAKVKR (SEQ ID NO: 1), cell penetrating peptide from Dictyostelium discoideum (listed as Dictyostelium discoideum)
[1]
  effect on Dictyostelium aggregation: neither the Cupid B peptide nor the PKI peptide alone have any effect on aggregation

## FITC-Cupid A: Cupid A (SEQ ID NO: 2) chemically synthesized, labelled with FITC at the amino terminal ({FITC}-RSVQIWFQNRRAKAR; listed as Dictyostelium discoideum)
[2]
  entry of fluorescently labeled peptide into cells: entering cultured cells
  time for half-maximal permeation: 28 min

## FITC-Cupid B: Cupid B (SEQ ID NO: 1) chemically synthesized, labelled with FITC at the amino terminal ({FITC}-RRVQIWFQNKRAKVKR; listed as Dictyostelium discoideum)
[3]
  entry of fluorescently labeled peptide into cells: entering cultured cells
[2]
  entry of fluorescently labeled peptide into cells: entering cultured cells
  time for half-maximal permeation: 17 min
[2]; media containing FITC-peptide replaced with peptide-free media
  reversibility of permeation: reversible
Human fibroblasts
  entry of fluorescently labeled peptide into cells: entering cultured cells

Source: patent US9913914B2, “Cell transport” (priority 2013, dated 2018)
